Test results published in PubChem BioAssay (NCI).
Where “and” joins values, the source holds several entries; their conditions need not be identical. Identical values can stand only once.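 Compound exposure: 48 hours, 5 concentrations, 96-well plates. The concentration for 50% growth inhibition is given as GI50. TGI: total growth inhibition.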

How the values were obtained:
Experiment in all cases: NCI tumour cell line growth inhibition, 48 h; in the data active = GI50 below about 0.43 µM; inactive = the rest
U251 CNS = test system: U251 CNS
TK-10 renal = test system: TK-10 renal
MALME-3M melanoma = test system: MALME-3M melanoma
NCI-H460 lung = test system: NCI-H460 lung
HT29 colon = test system: HT29 colon
NCI-H226 lung = test system: NCI-H226 lung
OVCAR-4 ovarian = test system: OVCAR-4 ovarian
786-0 renal = test system: 786-0 renal
RXF 393 renal = test system: RXF 393 renal
DU-145 prostate = test system: DU-145 prostate

N#Cc1ccc(C(C2C(=O)NC(=O)NC2=O)C2C(=O)NC(=O)NC2=O)cc1
> 100 µM: TGI (U251 CNS) | TGI (TK-10 renal) | TGI (MALME-3M melanoma) | TGI (NCI-H460 lung) | TGI (HT29 colon) | TGI (NCI-H226 lung) | TGI (OVCAR-4 ovarian) | TGI (786-0 renal)

CCCCN(CCCC)CC(C(=O)Nc1ccc([N+](=O)[O-])cc1[N+](=O)[O-])/C(C)=N\NC(=O)C[N+](C)(C)C (stereo unspecified)
> 100 µM: TGI (U251 CNS) | TGI (TK-10 renal) | TGI (MALME-3M melanoma) | TGI (NCI-H460 lung) | TGI (HT29 colon) | TGI (NCI-H226 lung) | TGI (OVCAR-4 ovarian) | TGI (RXF 393 renal) | TGI (786-0 renal)

CCc1cccc(CC)c1NC(=O)CC1SC(N)=NC1=O (stereo unspecified)
> 100 µM: TGI (U251 CNS) | TGI (TK-10 renal) | TGI (MALME-3M melanoma) | TGI (NCI-H460 lung) | TGI (HT29 colon) | TGI (NCI-H226 lung) | TGI (OVCAR-4 ovarian) | TGI (RXF 393 renal) | TGI (786-0 renal)

C=C1c2[nH]c3ccccc3c2CC(C(=O)O)N1C(O)c1ccc(S(=O)(=O)O)cc1 (stereo unspecified)
> 100 µM: TGI (U251 CNS) | TGI (TK-10 renal) | TGI (MALME-3M melanoma) | TGI (NCI-H460 lung) | TGI (HT29 colon) | TGI (NCI-H226 lung) | TGI (OVCAR-4 ovarian) | TGI (RXF 393 renal) | TGI (786-0 renal)

COc1cc(/C=C/C(=O)c2c(C)nc3ccccc3c2C)ccc1OCCCCOc1cc2c(cc1OC)C(=O)N1CCC[C@H]1C=N2
0.955 µM: TGI (U251 CNS)
1.13 µM: TGI (DU-145 prostate)
3.2 µM: TGI (TK-10 renal)
1.86 µM: TGI (786-0 renal)
active: GI50 (U251 CNS) 0.305 µM | GI50 (TK-10 renal) 0.403 µM | GI50 (DU-145 prostate) 0.368 µM | GI50 (HT29 colon) 0.403 µM
4.62 µM: TGI (OVCAR-4 ovarian)
2.58 µM: TGI (NCI-H460 lung)
2.37 µM: TGI (MALME-3M melanoma)
2.02 µM: TGI (HT29 colon)
3.26 µM: TGI (NCI-H226 lung)
inactive: GI50 (MALME-3M melanoma) 0.554 µM | GI50 (NCI-H460 lung) 0.832 µM | GI50 (NCI-H226 lung) 1.3 µM | GI50 (OVCAR-4 ovarian) 0.47 µM | GI50 (786-0 renal) 0.602 µM

O=C1C(=C([O-])c2ccccc2)C(=O)c2ccccc21.O=C1C(=C([O-])c2ccccc2)C(=O)c2ccccc21.[Co+2]
> 100 µM: TGI (U251 CNS) | TGI (TK-10 renal) | TGI (MALME-3M melanoma) | TGI (HT29 colon) | TGI (NCI-H226 lung) | TGI (OVCAR-4 ovarian) | TGI (786-0 renal)
inactive: GI50 (U251 CNS) > 100 µM | GI50 (TK-10 renal) > 100 µM | GI50 (MALME-3M melanoma) 40.1 µM | GI50 (HT29 colon) > 100 µM | GI50 (NCI-H226 lung) > 100 µM | GI50 (OVCAR-4 ovarian) > 100 µM | GI50 (786-0 renal) > 100 µM

CC(=O)Oc1c(Br)ccc2cc(C(Br)Br)c(C(=O)c3ccccc3)nc12
51 µM: TGI (MALME-3M melanoma)
40.2 µM: TGI (NCI-H226 lung)
36.3 µM: TGI (U251 CNS)
31.9 µM: TGI (TK-10 renal)
40.1 µM: TGI (HT29 colon)
46.9 µM: TGI (786-0 renal)
33.8 µM: TGI (RXF 393 renal)
44.4 µM: TGI (NCI-H460 lung)
21.7 µM: TGI (OVCAR-4 ovarian)

O=C1NC(=O)C2C1C1C=C3c4ccccc4N(c4ccccc4)C32[C@H]2C(=O)NC(=O)[C@@H]12 (stereo partly specified)
> 100 µM: TGI (TK-10 renal) | TGI (MALME-3M melanoma) | TGI (NCI-H460 lung) | TGI (HT29 colon) | TGI (NCI-H226 lung) | TGI (OVCAR-4 ovarian) | TGI (786-0 renal)

CC(=O)OCC1OC([Se-])C(OC(C)=O)C(OC(C)=O)C1OC(C)=O.N#CCC[PH+](CCC#N)CCC#N.[Au+] (stereo unspecified)
39.7 µM: TGI (HT29 colon)
> 100 µM: TGI (RXF 393 renal)
46.9 µM: TGI (TK-10 renal)
29.6 µM: TGI (NCI-H460 lung)
16.3 µM: TGI (NCI-H226 lung)
65.8 µM: TGI (OVCAR-4 ovarian)
53.3 µM: TGI (786-0 renal)
48.3 µM: TGI (MALME-3M melanoma)
> 48.8 µM: TGI (U251 CNS)
inactive: GI50 (U251 CNS) 10.9 µM | GI50 (TK-10 renal) 14.2 µM | GI50 (MALME-3M melanoma) 15 µM | GI50 (NCI-H460 lung) 4.95 µM | GI50 (HT29 colon) 4.73 µM | GI50 (NCI-H226 lung) 3.73 µM | GI50 (OVCAR-4 ovarian) 13.8 µM | GI50 (RXF 393 renal) 3.14 µM | GI50 (786-0 renal) 6.3 µM

O=C([O-])CCc1ccccc1.O=C([O-])CCc1ccccc1.O=C([O-])CCc1ccccc1.O=C([O-])CCc1ccccc1.[Mo+2].[Mo+2]
> 100 µM: TGI (U251 CNS) | TGI (TK-10 renal) | TGI (MALME-3M melanoma) | TGI (NCI-H460 lung) | TGI (HT29 colon) | TGI (NCI-H226 lung) | TGI (OVCAR-4 ovarian) | TGI (RXF 393 renal) | TGI (786-0 renal)
inactive: GI50 (U251 CNS) > 100 µM | GI50 (TK-10 renal) > 100 µM | GI50 (MALME-3M melanoma) > 100 µM | GI50 (NCI-H460 lung) > 100 µM | GI50 (HT29 colon) > 100 µM | GI50 (NCI-H226 lung) > 100 µM | GI50 (OVCAR-4 ovarian) > 100 µM | GI50 (RXF 393 renal) > 100 µM | GI50 (786-0 renal) > 100 µM

COC(=O)[C@@H](C)C[C@H](Cc1ccccc1)NC(=O)c1csc([C@@H](C[C@H](C(C)C)N(C)C(=O)C2(NC(=O)[C@H]3CCCCN3C)CCC2)OC(C)=O)n1
active: GI50 (U251 CNS) 0.00545 µM and 0.00627 µM | GI50 (MALME-3M melanoma) 0.0025 µM | GI50 (DU-145 prostate) 0.00351 µM and 0.0025 µM | GI50 (NCI-H460 lung) 0.00549 µM and 0.0057 µM | GI50 (HT29 colon) 0.00269 µM and 0.0025 µM | GI50 (NCI-H226 lung) 0.0547 µM
> 25 µM: TGI (U251 CNS) | TGI (TK-10 renal) | TGI (MALME-3M melanoma) | TGI (DU-145 prostate) | TGI (NCI-H460 lung) | TGI (HT29 colon) | TGI (NCI-H226 lung) | TGI (OVCAR-4 ovarian) | TGI (786-0 renal)

NC(=S)N/N=C(\CCC(=O)Nc1ccccc1[N+](=O)[O-])CC(=O)c1ccco1
> 100 µM: TGI (U251 CNS) | TGI (TK-10 renal) | TGI (MALME-3M melanoma) | TGI (NCI-H460 lung) | TGI (HT29 colon) | TGI (NCI-H226 lung) | TGI (OVCAR-4 ovarian) | TGI (RXF 393 renal) | TGI (786-0 renal)

O=c1c(O)cc2c(O)oc3c(=O)c(O)c(O)c4c(O)oc1c2c43
33.3 µM: TGI (OVCAR-4 ovarian)
> 100 µM: TGI (TK-10 renal) | TGI (MALME-3M melanoma) | TGI (NCI-H460 lung) | TGI (HT29 colon) | TGI (NCI-H226 lung) | TGI (RXF 393 renal) | TGI (786-0 renal)
34.3 µM: TGI (U251 CNS)

O=c1nc(N2CCCC2)nc(N2CCCC2)s1
> 100 µM: TGI (U251 CNS) | TGI (TK-10 renal) | TGI (MALME-3M melanoma) | TGI (NCI-H460 lung) | TGI (HT29 colon) | TGI (NCI-H226 lung) | TGI (OVCAR-4 ovarian) | TGI (RXF 393 renal) | TGI (786-0 renal)

N#Cc1c(-c2ccccc2)cc(-c2cccs2)c(C#N)c1N
> 100 µM: TGI (U251 CNS) | TGI (TK-10 renal) | TGI (MALME-3M melanoma) | TGI (NCI-H460 lung) | TGI (HT29 colon) | TGI (OVCAR-4 ovarian) | TGI (786-0 renal)

CC(=O)N(CCN1C(=O)c2ccccc2C1=O)CCN1C(=O)c2ccccc2C1=O
> 100 µM: TGI (U251 CNS) | TGI (TK-10 renal) | TGI (NCI-H460 lung) | TGI (OVCAR-4 ovarian) | TGI (RXF 393 renal) | TGI (786-0 renal)

CCN1C(=O)N(CC)C2C1NC(=S)N2/N=C/C=C/c1ccccc1OC (stereo unspecified)
inactive: GI50 (TK-10 renal) 30.9 µM
active: GI50 (U251 CNS) 0.0427 µM | GI50 (MALME-3M melanoma) 0.0599 µM | GI50 (NCI-H460 lung) 0.037 µM | GI50 (HT29 colon) 0.0361 µM | GI50 (NCI-H226 lung) 0.0458 µM | GI50 (OVCAR-4 ovarian) 0.125 µM | GI50 (RXF 393 renal) 0.0521 µM | GI50 (786-0 renal) < 0.0212 µM
> 100 µM: TGI (U251 CNS) | TGI (TK-10 renal) | TGI (MALME-3M melanoma) | TGI (NCI-H460 lung) | TGI (HT29 colon) | TGI (NCI-H226 lung) | TGI (OVCAR-4 ovarian) | TGI (RXF 393 renal) | TGI (786-0 renal)

CCC1c2cc3n(c(=O)c2COC1O)Cc1c-3nc2ccccc2c1Cl (stereo unspecified)
> 100 µM: TGI (U251 CNS) | TGI (TK-10 renal) | TGI (MALME-3M melanoma) | TGI (NCI-H460 lung) | TGI (HT29 colon) | TGI (NCI-H226 lung) | TGI (OVCAR-4 ovarian) | TGI (RXF 393 renal) | TGI (786-0 renal)
